What was measured:
[1] = Molar enthalpy of transition or fusion; conditions: Crystal; DSC

O=C(O)c1ccc(O)cc1O [2,4-dihydroxybenzoic acid]
Conditions | vapor or sublimation pressure [kPa]
364.2 K, Crystal, Torsion effusion method | 6.2e-05
365.3 K, Crystal, Torsion effusion method | 7e-05
366.3 K, Crystal, Torsion effusion method | 8e-05
367.1 K, Crystal, Torsion effusion method | 8.9e-05
368.3 K, Crystal, Torsion effusion method | 0.000101
369.6 K, Crystal, Torsion effusion method | 0.000116
370.8 K, Crystal, Torsion effusion method | 0.000131
372.5 K, Crystal, Torsion effusion method | 0.000155
374.2 K, Crystal, Torsion effusion method | 0.000187
375.7 K, Crystal, Torsion effusion method | 0.000218
377.1 K, Crystal, Torsion effusion method | 0.000255
379 K, Crystal, Torsion effusion method | 0.000312
380.3 K, Crystal, Torsion effusion method | 0.000353
382.5 K, Crystal, Torsion effusion method | 0.000391
383 K, Crystal, Torsion effusion method | 0.000423
384.1 K, Crystal, Torsion effusion method | 0.000512
385.2 K, Crystal, Torsion effusion method | 0.000576
387.3 K, Crystal, Torsion effusion method | 0.000655
388.1 K, Crystal, Torsion effusion method | 0.000735
389.2 K, Crystal, Torsion effusion method | 0.000821
390.1 K, Crystal, Torsion effusion method | 0.000912
511.2 K, Liquid, Non-isothermal TG | 2.825
511.7 K, Liquid, Non-isothermal TG | 2.896
512.2 K, Liquid, Non-isothermal TG | 3.022
512.7 K, Liquid, Non-isothermal TG | 3.073
513.3 K, Liquid, Isothermal TG | 3.108
513.8 K, Liquid, Isothermal TG | 3.111
514.3 K, Liquid, Isothermal TG | 3.167
514.8 K, Liquid, Non-isothermal TG | 3.343
515.3 K, Liquid, Non-isothermal TG | 3.35
515.8 K, Liquid, Non-isothermal TG | 3.458
516.4 K, Liquid, Non-isothermal TG | 3.553
516.9 K, Liquid, Isothermal TG | 3.606
517.4 K, Liquid, Isothermal TG | 3.622
517.9 K, Liquid, Isothermal TG | 3.638
518.4 K, Liquid, Isothermal TG | 3.711
518.9 K, Liquid, Non-isothermal TG | 3.901
519.4 K, Liquid, Non-isothermal TG | 3.97
519.9 K, Liquid, Non-isothermal TG | 4.016
520.4 K, Liquid, Non-isothermal TG | 4.161
520.9 K, Liquid, Isothermal TG | 4.222
521.4 K, Liquid, Isothermal TG | 4.207
521.9 K, Liquid, Isothermal TG | 4.223
522.4 K, Liquid, Isothermal TG | 4.342
522.9 K, Liquid, Non-isothermal TG | 4.463
523.4 K, Liquid, Non-isothermal TG | 4.543
523.9 K, Liquid, Non-isothermal TG | 4.649
524.4 K, Liquid, Non-isothermal TG | 4.833
525.4 K, Liquid, Isothermal TG | 4.975
526.4 K, Liquid, Isothermal TG | 5.059
526.9 K, Liquid, Isothermal TG | 5.093
527.4 K, Liquid, Isothermal TG | 5.122
528.4 K, Liquid, Non-isothermal TG | 5.41
528.9 K, Liquid, Non-isothermal TG | 5.477
529.4 K, Liquid, Non-isothermal TG | 5.483
529.9 K, Liquid, Non-isothermal TG | 5.556
530.4 K, Liquid, Isothermal TG | 5.598
530.9 K, Liquid, Isothermal TG | 5.667
531.5 K, Liquid, Isothermal TG | 5.675
532 K, Liquid, Isothermal TG | 5.825
532.5 K, Liquid, Non-isothermal TG | 5.928
533 K, Liquid, Non-isothermal TG | 6.061
533.5 K, Liquid, Isothermal TG | 6.226
534 K, Liquid, Isothermal TG | 6.322

Conditions | Normal melting temperature [°C]
Crystal, DTA | 228.6

Conditions | Molar enthalpy of transition or fusion [kcal/mol]
[1] | 7.41
